Measurements from patent US8309356B2, “Pseudocomplementary oligonucleotides for targeted gene therapy” (Yale University, priority 2009, dated 2012).

Key:
[1] = system: chromosomal GFP/IVS2-1^G→A gene; test: Gene correction of chromosomal GFP/IVS2-1G→A fusion gene in CHO reporter cells, GFP-positive cells quantified by FACS; type: cell-based; conditions: with β-globin/GFP donor DNA (or donor alone)
Experimental: The HinDIII-NotI fragments of these plasmids, containing the GFP sequence interrupted by IVS2-1 or IVS2 wt construct, were subcloned into the multiple cloning site of pcDNA5/FRT (Invitrogen, Carlsbad, Calif.), and the resulting vectors were stably transfected into CHO-Flp host cell lines using the Flp-In System according to manufacturer's instructions (Invitrogen, Carlsbad Calif.). […] The resulting CHO-GFP/IVS2-1^G→A cells and control CHO-GFP/IVS2-1^WT cells were grown in Ham's F12 media supplemented with 10% FBS and 2 mM L-glutamine.
1×10^6 cells in 100 μl of media were mixed with selected pcPNAs (6 μM) and GFP-DNA (12 μM) oligonucleotides and electroporated in 0.4 cm cuvettes using a Bio-Rad Gene Pulser (280V, […], Hercules, Calif.). Cells were replated in 60 mm dishes following electroporation and allowed to expand to approximately 90% confluency (2-3 days). […] Two days later as indicated, cells were then visualized via fluorescence microscopy or analyzed by FACS.
Cells were visualized using a Zeiss Axiovert 200 (Thornwood, N.Y.) fluorescent microscope at 100× and 200× magnification. […] Cells were analyzed using a Becton Dickinson FACS-Calibur flow cytometer (Franklin Lakes, N.J.). […] Collected data were then analyzed using the FlowJo software (Tree Star Inc., Ashland, Oreg.). […]

supF reporter gene = test: Induced recombination / gene correction of supF reporter gene in SV40-based shuttle vector transfected into COS cells, scored in indicator bacteria; type: cell-based, monkey; conditions: plasmid co-mixed with binding molecule and supF1-donor DNA, two days
From the text: In this assay, each targeting oligomer was designed, including the pair of pcPNAs, the TFO (AG30) and the bis-PNA (bis-PNA5), to bind to a selected site in the supF reporter gene contained in an SV40-based shuttle vector. In this vector construct, the supF gene has an inactivating single base pair mutation which can be corrected by recombination with a short single stranded oligonucleotide donor. The pcPNAs were designed to bind to a mixed sequence site 62 by away from the mutation, whereas the TFO and the bis-PNA were targeted to a G:C by rich polypurine site 24 by away from the mutation. The plasmid vector DNA was co-mixed with selected molecules, and the samples were transfected into monkey COS cells. Two days were allowed for repair/recombination/replication, and the episomal vector DNA was harvested for genetic analysis of the supF gene in indicator bacteria, as previously described (by Chan, et al., J. Biol. Chem., 274:11541-11548 (1999)). As expected, and consistent with other published work, the TFO (AG30) and the bis-PNAS induced gene correction in the supF gene at frequencies of 0.14% and 0.21%, respectively (FIG. 4). […] A pair of control pcPNAs (pcPNA3 and pcPNA4) with 5 mismatches each to the supF target site were ineffective, showing the sequence specificity of the process.

Row | Substance | Frequency of gene correction ([1]; S-phase synchronized cells, SAHA, single treatment) [%] | Frequency of gene correction ([1]; asynchronous CHO-GFP/IVS2-1G→A cells, single electroporation, no additive) [%] | Frequency of gene correction in the supF gene (recombination frequency) (supF reporter gene) [%]
1 | GTTCAGCGTGTCCGGCGAGGGCGAGGTGAGTCTATGGGACCCTTGATGTTT (listed as DNA, chemistry not given here) [GFP-donor DNA] | 0.29 | 0.005 | 
2 | AGGAAGGGGGGGGTGGTGGGGGAGGGGGAG (chemistry not given here) [AG30] |  |  | 0.14
3 | JJJJJTTJJT-O-O-O-TCCTTCCCCC-(Lys)3 (JJJJJTTJJT-O-O-O-TCCTTCCCCC-(Lys)_{3}; as printed in the source, key not given here) [Bis-PNA5] |  |  | 0.21
